Laboratory results: patent publication US9241976B2, “Use of HDL-related molecules to treat and prevent proinflammatory conditions” (THE REGENTS OF THE UNIVERSITY OF CALIFORNIA, priority 2011, dated 2016)

Legend:
[1] = tested on: NIH3T3 cells; experiment: NIH3T3 cell viability, MTS assay; format: cell-based; conditions: 10 μg/mL, 48 hours
Protocol: CT26 and NIH3T3 cells (2,000 cells per well) were first cultured in complete medium in 96-well culture plates, and 24 hours later the medium was replaced with serum-free medium. […] Cells were incubated for an additional 48 hours and assayed for viability using MTS assays kit (Promega) according to the manufacturer's protocol.

[2] = tested on: CD31; experiment: CD31 immunohistochemistry of lung surface tumors; format: in vivo, mouse; conditions: 100 mg/kg/d in chow diet for 3 weeks, vs control mice
Protocol: Tumor tissues from the lung surface were fixed and embedded with paraffin, sectioned at […] thickness. Sections were deparaffinized with xylene, rehydrated with 100%, 90%, 70%, and 50% ethanol, treated with proteinase K at […] for 30 minutes, and treated with 3% H2O2 for 30 minutes at room temperature to inhibit endogenous peroxidase, blocked with 10% normal goat serum and 4% bovine serum albumin prepared in PBS for 3 hours, and then incubated with 1:50 rat antimouse monoclonal CD31 antibody overnight at 4° C. The sections were incubated with corresponding biotinylated secondary antibody for 1 hour, followed by incubation with Vectastain ABC Elite reagents.

[3] = tested on: HIF-1α mRNA; experiment: HIF-1α mRNA, real-time RT-PCR; format: cell-based, human
Protocol: Total RNA was extracted from cells by using a PureLink RNA Mini Kit (Invitrogen). The quantity and quality of RNA were assessed by using a SmartSpec 3000 Spectrophotometer (Bio-Rad Laboratories, Hercules, Calif.). cDNA was synthesized by using the High Capacity cDNA Reverse Transcription Kit (Applied Biosystems, Foster City, Calif.) according to the manufacturer's instructions. PCRs were performed by using the CFX96 realtime PCR system (Applied Biosystems). The cycling conditions were as follows: 3 min at 95° C. followed by 40 cycles of 95° C., 10 s; 60° C., 10 s; 72° C., 30 s followed by a final extension at 72° C. for 10 min. Each 25-μl reaction contained 0.4 μg of cDNA, 12.5 μl of SYBR Green qPCR SuperMix (Bio-Rad Laboratories), and 250 nM forward and reverse primers in nuclease-free water. […]

[4] = tested on: CT26 cells; experiment: Cell-cycle analysis of CT26 cells by flow cytometry; format: cell-based, mouse; set-up: dose or concentration left out as unconfirmed; conditions: 48 hours
Protocol: CT26 cells were cultured in 6-well plates overnight and then serum starved for 48 hours. […] Cells were collected, washed with PBS, and fixed with 70% ice-cold methanol overnight at 4° C. The fixed cells were collected by centrifugation, washed with PBS, and resuspended in 0.3 mL of PBS containing […] RNaseA and […] propidium iodide, and subjected to flow cytometric cell-cycle analysis by FACScan from BD Biosciences.

[5] = tested on: LPA; experiment: LPA levels in CT26 cell culture medium; format: cell-based, mouse; conditions: CT26 cells; 48 hours; vs control medium
Protocol: FIGS. 17A-17B. HDL mimetic, L-4F inhibits LPA induced viability of CT26 cells and reduces LPA levels in cell culture medium. FIG. 17A, CT26 cells were cultured as described in Example 5 and incubated with either L-4F at 10 mg/mL or LPA at a concentration 5, 10, […], or cells were treated with both L-4F and LPA for 48 hours. All experiments were conducted in triplicate and each assay was carried out in quadruplicates. Data are represented as the mean±SD of the percent of control cells. FIG. 17B, LPA levels were measured in the cell culture medium after 48 hours of treatment.
(§1) LPA (20:4) was purchased from Avanti Polar Lipids. LPA levels were determined as described previously (19).
LPA has been identified as an important mediator of tumor development, progression, and metastases in humans (26, 27). We have previously shown that apoAI mimetic peptides inhibit LPA-induced viability of ID8 cells and reduce serum LPA levels in mice injected with ID8 cells (17). […] LPA 20:4 and 18:1 were not detectable in cell culture medium (FIG. 17B).

[6] = tested on: cis-platinum-resistant human ovarian cancer cells; conditions: reference (17); cited from earlier work
[7] = tested on: CT26 cells; experiment: Pulmonary metastasis in vivo: CT26 lung tumors in BALB/c mice; set-up: species or system mouse; conditions: CT26 via tail vein
Protocol: BALB/c mice were intravenously injected with 2×10^4 CT26 cells in 100 μL of PBS via tail vein injection and the mice were treated with bHDL at 10 mg/kg/day administered SQ for 3 weeks; or treated with bHDL at 100 mg/kg/day administered in a chow diet for 3 weeks. After 3 weeks treatment, the mice were sacrificed; lungs were harvested, weighed and fixed with Bouin's solution (Sigma). Tumor nodules on the lung surface were counted.
BALB/c mice were intravenously injected with 2×10^4 CT26 cells in […] of PBS via tail vein injection and the mice were treated with L-4F or sc-4F at 10 mg/kg/d administered subcutaneously for 3 weeks, or treated with sc-4F or L-4F or G* peptide at 100 mg/kg/d administered in a chow diet for 3 weeks. After 3 weeks treatment, the mice were sacrificed; lungs were harvested, weighed, and fixed with Bouin solution (Sigma). Tumor nodules on the lung surface were counted.

[8] = tested on: lysophosphatidic acid (LPA); experiment: Plasma LPA levels in treated mice; format: in vivo, mouse; conditions: for plasma LPA levels: vs control mice
Protocol: LPA (20:4) was purchased from Avanti Polar Lipids. LPA levels were determined as described previously (Murph et al., 2007, Methods Enymol 433:1-25).
as §1

[9] = tested on: IL-6; experiment: Plasma IL-6 ELISA; format: in vivo, mouse; conditions: lung tumor mice; 10 mg/kg/d subcutaneously for 3 weeks; vs control group
Protocol: Interleukin (IL)-6 concentrations were measured in plasma by a competition ELISA according to the manufacture's protocol (Invitrogen).

[10] = 10 mg/kg/d subcutaneously for 3 weeks
[11] = 100 mg/kg/d in chow diet for 3 weeks

Substance: Ac-DWFKAFYDKVAEKFKEAF-NH2 [L-4F, Ac-D-W-F-K-A-F-Y-D-K-V-A-E-K-F-K-E-A-F-NH2]
- NIH3T3 cell viability [1]: not affected
- CD31 expression in tumors [2]: significant decrease
- basal level of HIF-1α mRNA [3]: no effect
- cell-cycle profile [4]: induced an increase in G0/G1 phase and arrest in S phase
- LPA 16:0 and 18:0 levels in cell culture medium [5]: significantly decreased
- viability and proliferation [6]: reduced
- lung weights [7, 10]: 225 mg
- tumor numbers counted on the lung surface [7, 10]: 18
- lung weights [7, 11]: 238 mg
- tumor numbers on the lung surface [7, 11]: 12
- plasma LPA levels ([8]; BALB/c lung tumor mice, 100 mg/kg/d in chow for 3 weeks): significantly reduced
- plasma LPA levels ([8]; C57BL/6J-APC^min/+ mice, 100 mg/kg/d in mouse chow for 8 weeks): significantly reduced
- decrease of plasma LPA levels compared with control mice ([8]; C57BL/6J-APC^min/+ mice, chow, 8 weeks): > 50%
- IL-6 levels in plasma [9]: significantly decreased
